Data published in patent US10987349B2, “Antitumor agent and bromodomain inhibitor” (FUJIFILM Corporation, priority 2016, dated 2021).

Columns and labels:
NCI-H522 = assay: Cell growth test (Cell Titer Blue) NCI-H522; format: cell-based; details: Homo sapiens, 72 h, NCI-H522, Lung cancer, 3 days
Protocol: (§1) Moreover, the compound of Example 14 was subjected to a cell growth test using various types of cell lines.
(§2) All cell lines other than the below-noticed cells were each seeded in a well plate, in which an RPMI-1640 medium supplemented with penicillin/streptomycin and FBS with a final concentration of 10% was placed. The human prostate cancer cell line VCaP (ATCC) was seeded in a well plate, in which DMEM medium supplemented with penicillin/streptomycin and FBS with a final concentration of 10% was placed. […] Thereafter, using Enspire Multimode Plate Reader (PerkinElmer), the amount of fluorescence at an excitation wavelength of 531 nm and a fluorescence wavelength of 615 nm was measured. Since the amount of fluorescence is in proportion to the concentration of a florescent product resorufin that is converted from resazurin as a redox dye by living cells, the amount of fluorescence was used as an indicator of the number of living cells. The growth inhibition percentage of the test compound in each concentration was calculated according to the following equation. Growth inhibition percentage (%)=(amount of fluorescence in test compound−added well)/(amount of fluorescence in DMSO−added well)×100 […]

MCF-7 = assay: Cell growth test (Cell Titer Blue) MCF-7; format: cell-based; details: Homo sapiens, MCF7, 72 h, MCF-7, Breast cancer, 3 days
Protocol: as §1, §2

HOP-62 = assay: Cell growth test (Cell Titer Blue) HOP-62; format: cell-based; details: Homo sapiens, 72 h, HOP-62, Lung cancer, 3 days
Protocol: as §1, §2

c-Myc gene = assay: Intratumoral expression of c-Myc gene in MV4-11-subcutaneously-transplanted cancer-bearing mouse models, RT-PCR; format: in vivo; details: 30 mg/kg
Protocol: According to an RT-PCR method, a fluctuation in the intratumoral expression of a c-Myc gene in MV4-11-subcutaneously-transplanted cancer-bearing mouse models, to which a test compound had been administered, was analyzed.
The compound of Example 14 was dissolved in a solvent (a 0.5% methyl cellulose aqueous solution or water containing 1 equivalent of hydrochloric acid), and the obtained solution was then orally administered to the mice at a dose of 30 mg/kg. As a negative control, a solvent administration group (vehicle) involving administration of a 0.5% methyl cellulose aqueous solution was established. Moreover, the test compound was dissolved in a solvent (a normal saline containing 1 equivalent of hydrochloric acid), and the obtained solution was then intravenously administered to the mice at a dose of 30 mg/kg. As a negative control, a solvent administration group (vehicle) involving administration of a normal saline was established. From MV4-11-subcutaneously-transplanted cancer-bearing mice involving oral or intravenous administration of the test compound, tumor was excised 1, 3, 6 and 24 hours (hr) after the administration. […] A PCR reaction was carried out by the same method as that of Test Example 5, and a fluctuation in the gene expression of GAPDH and c-Myc in the tumor was then evaluated.

HCT-15 = assay: Cell growth test (Cell Titer Blue) HCT-15; format: cell-based; details: Homo sapiens, 72 h, HCT-15, Colon cancer, 3 days
Protocol: as §1, §2

[1] = system: MV4-11 subcutaneously transplanted tumor; assay: Medicinal effect test, MV4-11-subcutaneously-transplanted cancer-bearing mouse models, intravenous administration; format: in vivo; details: intravenously, once per day, 25 days, BALB/c nu/nu mice
Protocol: T/C (%) was calculated from the average tumor volume of each group according to the following equation, and medicinal effects were then evaluated. T/C(%)=[1−(average tumor volume of drug administration group)/(average tumor volume of solvent administration group)]×100%
Moreover, using the above-described mouse models, medicinal effects obtained upon intravenous administration were evaluated.
The human acute myeloid leukemia cell line MV4-11 (ATCC) was suspended in a mixture of RPMI-1640 […] and Matrigel (Corning), and the obtained mixture was then subcutaneously transplanted into 6-week-old female BALB/c nu/nu mice (CLEA Japan, Inc.). After confirming that the average tumor volume exceeded 200 mm^3, a test compound was dissolved in a solvent (a normal saline containing 1 equivalent of hydrochloric acid), and the obtained solution was then intravenously administered to the mice at a daily dose of 10 to 30 mg/kg, once per day, for 25 days. As a negative control, a solvent administration group involving administration of a normal saline was established. The tumor diameter was measured on a daily basis, and the tumor volume was calculated. In the same manner as described above, the tumor volume and T/C (%) were calculated, and medicinal effects were then evaluated.

KM12 = assay: Cell growth test (Cell Titer Blue) KM12; format: cell-based; details: Homo sapiens, 72 h, KM12, Colon cancer, 3 days
Protocol: as §1, §2

NCI-H460 = assay: Cell growth test (Cell Titer Blue) NCI-H460; format: cell-based; details: Homo sapiens, 72 h, NCI-H460, Lung cancer, 3 days
Protocol: as §1, §2

How did the GI50 (NCI-H522) turn out when `CCn1c(=O)cc(C2CCN(C)CC2)c2cc(C(=O)N(C)c3ccc(C)cc3)ccc21` [Example 14, 1-Ethyl-N-methyl-N-(4-methylphenyl)-4-(1-methylpiperidin-4-yl)-2-oxo-1,2-dihydroquinoline-6-carboxamide] was run?
The GI50 was 155 nM.

And the GI50 (MCF-7)?
The GI50 was 689 nM.

What about the GI50 (HOP-62) of the same compound?
The GI50 was 143 nM.

And the “intratumoral expression of the c-Myc gene” value (c-Myc gene; intravenously, tumor excised 1, 3, 6 and 24 hr after administration (FIG. 4))?
Its value is “decreased”.

What about the “intratumoral expression of the c-Myc gene” value (c-Myc gene; orally, tumor excised 1, 3, 6 and 24 hr after administration (FIG. 5)) of the same compound?
The value was “decreased”.

And the GI50 (HCT-15)?
Its GI50 is 505 nM.

And the “T/C (%)” value ([1]; 10 mg/kg)?
Its value is 66%.

What about the “T/C (%)” value ([1]; 30 mg/kg) of the same compound?
The value was 78%.

What about the GI50 (KM12) of the same compound?
The GI50 was 1490 nM.

And the GI50 (NCI-H460)?
Its GI50 is 2030 nM.
